Reference: PubChem BioAssay AID1918954 (Molecular Pharmacology Branch, DTP, NCI, 2023)

System: MDA-MB-468 complex spheroids with HUVEC/MSC, viability
Assay: Anticancer human tumor MDA-MB-468 cell line growth inhibition;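 also: spheroids exposed to agents for seven days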;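 as to viability, T/C: 100% = DMSO vehicle control viability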
Settings: for IC50: curve of first compound; for viability, T/C: stronger effect = lower value
Source text: Multicellular complex tumor spheroid response to LSD1 Inhibitor Iadademstat in combination with a variety of drugs and investigational agents in selected tumor cell lines
The current study was undertaken to assess response to LSD1 inhibitors in combination with standard-of-care drugs and investigational agents in solid tumor complex spheroid models as well as in the K-562 leukemia. Complex spheroids include a stromal component modeled by human endothelial cells (HUVEC) and fibroblasts modeled by human mesenchymal stem cells (MSCs). The concentration ranges selected for each drug and investigational agent were based upon clinically achievable concentrations if the clinical Cmax of the agent was known.
Compounds. The drugs and investigational agents used in this study are listed on Table 1. All of the agents used, including staurosporine (NSC755774) and gemcitabine (NSC613327), were obtained from the Developmental Therapeutics Program, NCI. FDA-approved anticancer drugs are available from the NCI at http://dtp.nci.nih.gov/branches/dscb/oncology_drugset_explanation.html. Drugs and investigational agents were >95% pure by proton nuclear magnetic resonance (NMR) and liquid chromatography/mass spectrometry (LC/MS). Stock solutions were prepared at 400x in DMSO, stored at -70 degrees C, and diluted in fresh medium prior to their use. The final concentration of DMSO in cell culture wells never exceeded 0.25% (v/v). The FDA-approved anticancer drug set is available from the Developmental Therapeutics Program at https://dtp.cancer.gov/organization/dscb/obtaining/available_plates.htm. All drugs and investigational agents were tested over a range starting from a high concentration at or near the clinical Cmax and decreasing in half-log increments. If the clinical Cmax for an agent had not been determined, the highest concentration tested was 10 microM.
Cell Lines. The patient-derived cancer cell (PDC) lines: 292921-168-R-J2-PDC, K24384-001-R-PDC, and 521955-158-R2-J5-PDC pancreatic carcinomas, 556581-035-R-J1 ovarian carcinoma, 324938-238-R-J1-PDC, 855422-203-R-J1-PDC and 883617-216-R-J1-PDC urothelial bladder carcinomas, 743489-274-T-PDC renal cell carcinoma, 138582-R-J1 Merkel cell tumor, K60290-347-R-J1 and K57222-313-R-J1-PDC glioblastomas, 653999-131-R-J2-PDC, LG0703-F948-PDC, and 349418-098-R-PDC non-small cell lung carcinomas, 885512-296-R-J2-PDC, 171881-019-R-J1-PDC breast carcinomas and 186277-243-T-J2-PDC and 233499-124-R-J2-PDC colon carcinomas were obtained from the NCI Patient-Derived Models Repository (PDMR, https://pdmr.cancer.gov). The established cell lines NCI/ADR-RES (RRID:CVCL_14520 and OVCAR-5 (RRID:CVCL_1628) ovarian carcinomas, 786-O (RRID:CVCL_1051) and A498 (RRID:CVCL_A498) renal cell carcinoma, NCI-H211 (ATCC, cat. CRL-5824; RRID:CVCL_1529), NCI-H196 (ATCC, cat. CRL-5823, RRID:CVCL_1509), SW 1271 (ATCC, cat. CRL-2177, RRID:CVCL_1716) and NCI-H1876 (ATCC, cat. CRL-5902, RRID:CVCL_1503) small cell lung carcinomas, MDA-MB-231 (RRID:CVCL_0062) and MDA-MB-468 (RRID:CVCL_0419)breast carcinomas (10-12). Pooled donor human umbilical vein endothelial cells (HUVEC, Lonza, cat. CC-2519) and human mesenchymal stem cells (hMSC, Lonza, cat. PT-2501) were purchased from Lonza (Walkersville, MD).
Cell Culture. All cells were maintained in an incubator at 37 degrees C and 5% CO2 with 95% humidity. The PDC lines were cultured according to standard operating procedures established by the NCI PDMR (https://pdmr.cancer.gov). Briefly all PDCs were thawed and cultured in Matrigel-coated flasks prepared with a working solution of 1X Ham's F-12 nutrient mix, without supplementation (Invitrogen, Waltham, MA, cat. 11765054), 100 U/mL penicillin-streptomycin (Invitrogen, cat. 15140122), and 2.5% Matrigel (Corning Inc., Corning, NY, cat. 354248) for the first three passages. […]

[1] = second compound 0.1 µM, first compound 0.000949 µM
[2] = second compound 0.1 µM, first compound 0.003 µM
[3] = second compound 0.1 µM, first compound 0.00949 µM
[4] = second compound 0.1 µM, first compound 0.03 µM
[5] = second compound 0.1 µM, first compound 0.0949 µM
[6] = second compound 0.1 µM, first compound 0.3 µM
[7] = second compound 0.316 µM, first compound 0.000949 µM
[8] = second compound 0.316 µM, first compound 0.003 µM
[9] = second compound 0.316 µM, first compound 0.00949 µM
[10] = second compound 0.316 µM, first compound 0.03 µM
[11] = second compound 0.316 µM, first compound 0.0949 µM
[12] = second compound 0.316 µM, first compound 0.3 µM
[13] = second compound 1 µM, first compound 0.000949 µM
[14] = second compound 1 µM, first compound 0.003 µM
[15] = second compound 1 µM, first compound 0.00949 µM
[16] = second compound 1 µM, first compound 0.03 µM
[17] = second compound 1 µM, first compound 0.0949 µM
[18] = second compound 1 µM, first compound 0.3 µM
[19] = second compound 3.16 µM, first compound 0.000949 µM
[20] = second compound 3.16 µM, first compound 0.003 µM
[21] = second compound 3.16 µM, first compound 0.00949 µM
[22] = second compound 3.16 µM, first compound 0.03 µM
[23] = second compound 3.16 µM, first compound 0.0949 µM
[24] = second compound 3.16 µM, first compound 0.3 µM
[25] = second compound 10 µM, first compound 0.000949 µM
[26] = second compound 10 µM, first compound 0.003 µM
[27] = second compound 10 µM, first compound 0.00949 µM
[28] = second compound 10 µM, first compound 0.03 µM
[29] = second compound 10 µM, first compound 0.0949 µM
[30] = second compound 10 µM, first compound 0.3 µM

| Structure (SMILES) | IC50 (second compound 0.1 µM) [nM] | IC50 (second compound 0.316 µM) [nM] | IC50 (second compound 1 µM) [nM] | IC50 (second compound 3.16 µM) [nM] | IC50 (second compound 10 µM) [nM] | viability, T/C [1] [%] | viability, T/C [2] [%] | viability, T/C [3] [%] | viability, T/C [4] [%] | viability, T/C [5] [%] | viability, T/C [6] [%] | viability, T/C [7] [%] | viability, T/C [8] [%] | viability, T/C [9] [%] | viability, T/C [10] [%] | viability, T/C [11] [%] | viability, T/C [12] [%] | viability, T/C [13] [%] | viability, T/C [14] [%] | viability, T/C [15] [%] | further results |
| --- | --- | --- | --- | --- | --- | --- | --- | --- | --- | --- | --- | --- | --- | --- | --- | --- | --- | --- | --- | --- | --- |
| Nc1ccn(C2OC(CO)C(O)C2(F)F)c(=O)n1 (stereo not given) + NC1CCC(NC2CC2c2ccccc2)CC1 | < 0.949 | < 0.949 | < 0.949 | < 0.949 | < 0.949 | 5.76 | 4.85 | 5.57 | 4.54 | 4.56 | 5.13 | 5.33 | 5.22 | 5.23 | 4.88 | 5.47 | 5.64 | 6.43 | 6.38 | 5.41 | viability, T/C [16]: 4.34%; viability, T/C [17]: 4.71%; viability, T/C [18]: 5.55%; viability, T/C [19]: 6.65%; viability, T/C [20]: 5.98%; viability, T/C [21]: 5.78%; viability, T/C [22]: 5.89%; viability, T/C [23]: 4.69%; viability, T/C [24]: 5.66%; viability, T/C [25]: 7.63%; viability, T/C [26]: 6.29%; viability, T/C [27]: 6.52%; viability, T/C [28]: 7.12%; viability, T/C [29]: 5.35%; viability, T/C [30]: 5.45% |
| CCc1c2c(nc3ccc(O)cc13)-c1cc3c(c(=O)n1C2)COC(=O)[C@]3(O)CC + NC1CC1c1ccc(-c2cccc(O)c2)cc1 | < 0.949 | < 0.949 | < 0.949 | < 0.949 | < 0.949 | 4.36 | 3.78 | 2.14 | 0.44 | 0.43 | 0.53 | 4.17 | 3.69 | 1.95 | 0.43 | 0.4 | 0.49 | 3.6 | 3.54 | 2.31 | viability, T/C [16]: 0.52%; viability, T/C [17]: 0.36%; viability, T/C [18]: 0.52%; viability, T/C [19]: 4.14%; viability, T/C [20]: 3.66%; viability, T/C [21]: 2.43%; viability, T/C [22]: 0.36%; viability, T/C [23]: 0.43%; viability, T/C [24]: 0.47%; viability, T/C [25]: 4.14%; viability, T/C [26]: 3.24%; viability, T/C [27]: 2.07%; viability, T/C [28]: 0.38%; viability, T/C [29]: 0.56%; viability, T/C [30]: 0.6% |
